Measured values reported in patent publication US6962931B2, “Self-emulsifying formulations of cholesteryl ester transfer protein inhibitors” (Pfizer Inc., priority 2001, dated 2005).
Values after ≈ are worked out from the molar mass of the structure shown. Like-named read-outs stand apart in the source and are kept apart here.

Assay: Microsolubility estimate by repeated addition of vehicle
Format: physicochemical
Settings: thermodynamic from solid, read-out: Microsolubility
Description: (§1) For CETP inhibitors where quantities were limited, an estimate of solubility was obtained by addition of vehicle to a known quantity of the compound and mixing in an ultrasonicator bath for 90 minutes, followed by overnight equilibration at ambient temperature. Addition of vehicle was repeated until a solution was achieved.
as §1, with “limited or the samples were amorphous solids,” for “limited,”, “achieved. From the total volume of vehicle added to solubilize the CETP inhibitor compound, the solubility value, or so-called microsolubility, was calculated by the equation: Weight of sample (mgA)/vehicle volume (mL)=Microsolubility (mgA/mL)” for “achieved.”

[1] = Cremophor EL, organic solvent or mixture
[2] = Crodamol GTCC/Capmul MCM/Polysorbate 80 (40/40/20), oil or lipid
[3] = Corn, Safflower, Soybean oils, oil or lipid
[4] = PEG 400, organic solvent or mixture

Row | Structure (SMILES) | Solubility [1] [mg/mL] | Solubility [2] [mg/mL] | Solubility (Olive oil, oil or lipid) [mg/mL] | Solubility (Sesame oil, oil or lipid) [mg/mL] | Solubility (Capmul MCM, oil or lipid) [mg/mL] | Solubility [3] [mg/mL] | Solubility (Crodamol GTCC, oil or lipid) [mg/mL] | Solubility [4] [mg/mL] | Solubility (Miglyol 812, oil or lipid) [mg/mL] | Solubility (Safflower oil, oil or lipid) [mg/mL] | Solubility (Corn oil/Labrafil (80/20), oil or lipid) [mg/mL] | Solubility (Corn oil/Polysorbate 80 (80/20), oil or lipid) [mg/mL] | Solubility (Peanut oil, oil or lipid) [mg/mL]
1 | COC(=O)N(Cc1cc(C(F)(F)F)cc(C(F)(F)F)c1)[C@H]1CC(C2CC2)N(C(=O)OC(C)C)c2ccc(C(F)(F)F)cc21 (stereo in doubt) [Compound G, [2R,4S] 4-[(3,5-Bis-trifluoromethyl-benzyl)-methoxycarbonyl-amino]-2-cyclopropyl-6-trifluoromethyl-3,4-dihydro-2H-quinoline-1-carboxylic acid isopropyl ester] | > 300 | > 300 | > 300 | > 300 |  |  |  |  |  |  |  |  | 
2 | CCCOC(=O)N1c2ccc(C(F)(F)F)cc2[C@@H](N(Cc2cc(C(F)(F)F)cc(C(F)(F)F)c2)C(C)=O)CC1C1CC1 (stereo in doubt) [Compound M, [2R,4S] 4-[Acetyl-(3,5-bis-trifluoromethyl-benzyl)-amino]-2-cyclopropyl-6-trifluoromethyl-3,4-dihydro-2H-quinoline-1-carboxylic acid propyl ester] |  |  | < 300 |  | > 300 |  |  |  | > 300 | < 300 |  |  | 
3 | CCCOC(=O)N1c2ccc(C(F)(F)F)cc2[C@@H](N(C=O)Cc2cc(C(F)(F)F)cc(C(F)(F)F)c2)CC1C1CC1 (stereo in doubt) [Compound N, [2R,4S] 4-[(3,5-Bis-trifluoromethyl-benzyl)-formyl-amino]-2-cyclopropyl-6-trifluoromethyl-3,4-dihydro-2H-quinoline-1-carboxylic acid propyl ester] |  |  | > 300 |  | > 300 |  |  |  | > 300 | > 300 |  |  | 
4 | CCOC(=O)N1c2cc3c(cc2[C@H](N(Cc2cc(C(F)(F)F)cc(C(F)(F)F)c2)C(=O)OC)C[C@@H]1C)CCC3 [Compound J, [2S,4R] 4-[(3,5-Bis-trifluoromethyl-benzyl)-methoxycarbonyl-amino]-2-methyl-2,3,4,6,7,8-hexahydro-cyclopenta[g]quinoline-1-carboxylic acid ethyl ester] |  | > 100 | > 100 | > 100 | > 100 | > 100 | > 100 | 50 to 100 (≈ 89.5 to 179 mM) |  |  |  |  | > 100
5 | CCOC(=O)N1c2ccc(C(F)(F)F)cc2[C@@H](N(C=O)Cc2cc(C(F)(F)F)cc(C(F)(F)F)c2)C[C@H]1CC [Compound P, [2R,4S] 4-[(3,5-Bis-trifluoromethyl-benzyl)-formyl-amino]-2-ethyl-6-trifluoromethyl-3,4-dihydro-2H-quinoline-1-carboxylic acid ethyl ester] |  |  | > 300 |  | > 300 |  |  |  | > 300 | < 300 |  |  | 

Results, then the compound that gave them:

Row | Solubility [1] [mg/mL] | Solubility [2] [mg/mL] | Solubility (Olive oil, oil or lipid) [mg/mL] | Solubility (Sesame oil, oil or lipid) [mg/mL] | Solubility (Capmul MCM, oil or lipid) [mg/mL] | Solubility [3] [mg/mL] | Solubility (Crodamol GTCC, oil or lipid) [mg/mL] | Solubility [4] [mg/mL] | Solubility (Miglyol 812, oil or lipid) [mg/mL] | Solubility (Safflower oil, oil or lipid) [mg/mL] | Solubility (Corn oil/Labrafil (80/20), oil or lipid) [mg/mL] | Solubility (Corn oil/Polysorbate 80 (80/20), oil or lipid) [mg/mL] | Solubility (Peanut oil, oil or lipid) [mg/mL] | Structure (SMILES)
6 | < 160 |  | > 300 |  | > 300 | > 300 | > 300 | < 160 |  |  |  |  |  | COC(=O)N(Cc1cc(C(F)(F)F)cc(C(F)(F)F)c1)[C@@H]1CC(C2CC2)N(C(=O)OC(C)C)c2ccc(C(F)(F)F)cc21 (stereo in doubt) [Compound H, [2S,4R] 4-[(3,5-Bis-trifluoromethyl-benzyl)-methoxycarbonyl-amino]-2-cyclopropyl-6-trifluoromethyl-3,4-dihydro-2H-quinoline-1-carboxylic acid isopropyl ester]
7 |  |  | 303 (≈ 493 mM) |  |  |  |  |  | < 100 |  |  |  |  | CCCOC(=O)N1c2ccc(C(F)(F)F)cc2[C@@H](N(Cc2cc(C(F)(F)F)cc(C(F)(F)F)c2)C(=O)OC)C[C@H]1CC [Compound F, [2R,4S] 4-[(3,5-Bis-trifluoromethyl-benzyl)-methoxycarbonyl-amino]-2-ethyl-6-trifluoromethyl-3,4-dihydro-2H-quinoline-1-carboxylic acid propyl ester]
8 |  | > 20 | < 20 | < 20 | > 20 | < 20 | > 20 | < 20 |  |  | < 20 | > 20 | < 20 | CCOC(=O)N1c2cc(C(F)(F)F)ccc2[C@@H](N(Cc2cc(C(F)(F)F)cc(C(F)(F)F)c2)C(=O)OC)C[C@H]1C [Compound I, [2R,4S] 4-[(3,5-Bis-trifluoromethyl-benzyl)-methoxycarbonyl-amino]-2-methyl-7-trifluoromethyl-3,4-dihydro-2H-quinoline-1-carboxylic acid ethyl ester]
9 |  |  | < 300 |  | > 300 |  |  |  | > 300 | > 300 |  |  |  | CCOC(=O)N1c2ccc(C(F)(F)F)cc2[C@@H](N(Cc2cc(C(F)(F)F)cc(C(F)(F)F)c2)C(=O)OC)C[C@H]1C [Compound L, [2R,4S] 4-[(3,5-Bis-trifluoromethyl-benzyl)-methoxycarbonyl-amino]-2-methyl-6-trifluoromethyl-3,4-dihydro-2H-quinoline-1-carboxylic acid ethyl ester]
10 |  |  | < 300 |  | > 300 |  |  |  | > 300 | < 300 |  |  |  | CCOC(=O)N1c2ccc(C(F)(F)F)cc2[C@@H](N(Cc2cc(C(F)(F)F)cc(C(F)(F)F)c2)C(C)=O)C[C@H]1C [Compound O, [2R,4S] 4-[Acetyl-(3,5-bis-trifluoromethyl-benzyl)-amino]-2-methyl-6-trifluoromethyl-3,4-dihydro-2H-quinoline-1-carboxylic acid ethyl ester]
11 |  |  | < 300 |  | > 300 |  |  |  | > 300 | < 300 |  |  |  | CCOC(=O)N1c2ccc(C(F)(F)F)cc2[C@@H](N(C=O)Cc2cc(C(F)(F)F)cc(C(F)(F)F)c2)C[C@H]1C [Compound Q, [2R,4S] 4-[(3,5-Bis-trifluoromethyl-benzyl)-formyl-amino]-2-methyl-6-trifluoromethyl-3,4-dihydro-2H-quinoline-1-carboxylic acid ethyl ester]
